Laboratory results reported in ChEMBL document CHEMBL3351519, “Synthetic studies on mitotic kinesin Eg5 inhibitors: synthesis and structure-activity relationships of novel 2,4,5-substituted-1,3,4-thiadiazoline derivatives” (Bioorg Med Chem Lett, 2014).

Tests used:
Mus musculus [1] = assay: Toxicity in human A2780 cells xenografted SCID mouse assessed as induction of body weight loss at 100 mg/kg, po bid for 5 days; format: organism-based; design: dose 100 mg/kg, route oral; conditions: in vivo, 120 h
A2780 [2] = assay: Antitumor activity against human A2780 cells xenografted in SCID mouse assessed as tumor volume ratio at 100 mg/kg, po bid for 5 days relative to untreated control; format: functional
Mus musculus [3] = assay: Toxicity in human A2780 cells xenografted SCID mouse assessed as mortality at 100 mg/kg, po bid for 5 days; format: organism-based; design: dose 100 mg/kg, route oral; conditions: in vivo, 120 h
[4] = Growth inhibition of human HCT116 cells; format: functional; conditions: HCT-116
HCT-116 = assay: Induction of mitotic accumulation in human HCT116 cells Hoechst 33342 staining based by fluorescence microscopy; format: functional
[5] = molecular target: T1, Kinesin-like protein KIF11 (Homo sapiens, UniProt P52732); assay: Inhibition of Eg5 (unknown origin)
T1 sequence (P52732 whole entry): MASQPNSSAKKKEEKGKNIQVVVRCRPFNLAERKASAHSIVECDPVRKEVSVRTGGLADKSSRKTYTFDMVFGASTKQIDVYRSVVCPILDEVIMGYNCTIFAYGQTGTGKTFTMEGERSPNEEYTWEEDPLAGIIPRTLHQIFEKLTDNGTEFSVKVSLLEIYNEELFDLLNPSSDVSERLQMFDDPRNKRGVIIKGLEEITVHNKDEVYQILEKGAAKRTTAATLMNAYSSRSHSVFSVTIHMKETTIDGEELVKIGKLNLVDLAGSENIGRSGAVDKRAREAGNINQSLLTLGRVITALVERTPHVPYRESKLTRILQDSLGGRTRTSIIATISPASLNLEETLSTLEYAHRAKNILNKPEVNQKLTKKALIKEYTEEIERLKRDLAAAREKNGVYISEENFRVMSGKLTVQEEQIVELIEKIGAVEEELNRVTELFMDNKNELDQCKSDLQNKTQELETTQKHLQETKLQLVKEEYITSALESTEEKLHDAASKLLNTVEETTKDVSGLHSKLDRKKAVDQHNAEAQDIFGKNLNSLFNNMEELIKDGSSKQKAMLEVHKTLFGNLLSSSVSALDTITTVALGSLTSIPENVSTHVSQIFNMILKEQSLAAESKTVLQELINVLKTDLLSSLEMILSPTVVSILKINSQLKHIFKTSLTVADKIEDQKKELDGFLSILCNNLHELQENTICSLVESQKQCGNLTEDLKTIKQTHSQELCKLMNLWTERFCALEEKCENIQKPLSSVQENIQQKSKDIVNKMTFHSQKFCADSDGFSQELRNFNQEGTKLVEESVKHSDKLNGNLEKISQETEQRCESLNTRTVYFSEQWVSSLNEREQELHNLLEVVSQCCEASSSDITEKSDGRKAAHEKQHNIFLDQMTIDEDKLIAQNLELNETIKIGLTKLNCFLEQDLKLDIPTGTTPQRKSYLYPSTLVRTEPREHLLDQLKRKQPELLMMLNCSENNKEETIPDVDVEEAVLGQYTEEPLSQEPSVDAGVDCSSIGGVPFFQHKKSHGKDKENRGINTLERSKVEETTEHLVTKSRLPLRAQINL

[6] = Intrinsic clearance in mouse liver microsomes; format: ADME; conditions: read-out: CLH (converted)
Mus musculus [7] = assay: Toxicity in human A2780 cells xenografted SCID mouse assessed as mortality at 5 mg/kg, po bid for 5 days; format: organism-based; design: dose 5 mg/kg, route oral; conditions: in vivo, 120 h
Mus musculus [8] = assay: Toxicity in human A2780 cells xenografted SCID mouse assessed as induction of body weight loss at 5 mg/kg, po bid for 5 days; format: organism-based; design: dose 5 mg/kg, route oral; conditions: in vivo, 120 h
A2780 [9] = assay: Antitumor activity against human A2780 cells xenografted in SCID mouse assessed as tumor volume ratio at 5 mg/kg, po bid for 5 days relative to untreated control; format: functional
Mus musculus [10] = assay: Toxicity in human A2780 cells xenografted SCID mouse assessed as induction of body weight loss at 0.625 mg/kg, po bid for 5 days; format: organism-based; design: dose 0.625 mg/kg, route oral; conditions: in vivo, 120 h
Mus musculus [11] = assay: Toxicity in human A2780 cells xenografted SCID mouse assessed as mortality at 0.625 mg/kg, po bid for 5 days; format: organism-based; design: dose 0.625 mg/kg, route oral; conditions: in vivo, 120 h
A2780 [12] = assay: Antitumor activity against human A2780 cells xenografted in SCID mouse assessed as tumor volume ratio at 0.625 mg/kg, po bid for 5 days relative to untreated control; format: functional
Mus musculus [13] = assay: Toxicity in human A2780 cells xenografted SCID mouse assessed as induction of body weight loss at 10 mg/kg, po bid for 5 days; format: organism-based; design: dose 10 mg/kg, route oral; conditions: in vivo, 120 h
A2780 [14] = assay: Antitumor activity against human A2780 cells xenografted in SCID mouse assessed as tumor volume ratio at 2.5 mg/kg, po bid for 5 days relative to untreated control; format: functional
Mus musculus [15] = assay: Toxicity in human A2780 cells xenografted SCID mouse assessed as induction of body weight loss at 2.5 mg/kg, po bid for 5 days; format: organism-based; design: dose 2.5 mg/kg, route oral; conditions: in vivo, 120 h
A2780 [16] = assay: Antitumor activity against human A2780 cells xenografted in SCID mouse assessed as tumor volume ratio at 10 mg/kg, po bid for 5 days relative to untreated control; format: functional
[17] = Therapeutic index, ratio of MTD in human A2780 cells xenografted SCID mouse to ED50 for human A2780 cells xenografted in SCID mouse; format: cell-based; conditions: in vivo, read-out: TI
Mus musculus [18] = assay: Toxicity in human A2780 cells xenografted SCID mouse assessed as mortality at 10 mg/kg, po bid for 5 days; format: organism-based; design: dose 10 mg/kg, route oral; conditions: in vivo, 120 h
Mus musculus [19] = assay: Toxicity in human A2780 cells xenografted SCID mouse assessed as mortality at 2.5 mg/kg, po bid for 5 days; format: organism-based; design: dose 2.5 mg/kg, route oral; conditions: in vivo, 120 h
[20] = Oral absorption in mouse; format: ADME, organism-based; conditions: in vivo
A2780 [21] = assay: Antitumor activity against human A2780 cells xenografted in SCID mouse assessed as reduction in tumor volume dosed orally twice daily for 5 days relative to untreated control; format: functional, organism-based

| Compound | GI50 [4] [nM] | MI20 (HCT-116) [nmol/L] | IC50 [5] [nM] | also measured |
| --- | --- | --- | --- | --- |
| CC(=O)NC1=NN(C(C)=O)C(C)(c2ccccc2)S1 (stereo not given) | 1000 | 1100 |  | Activity (Mus musculus [1]): Non-toxic; T/C (A2780 [2]): 0.18; Activity (Mus musculus [3]): Non-toxic |
| CC(=O)N1N=C(N)SC1(C)c1ccccc1 (stereo not given) |  | >10000 |  |  |
| CC(C)(C)C(=O)NC1=NN(C(=O)C(C)(C)C)C(CC#N)(c2ccccc2)S1 (stereo not given) |  | >10000 |  |  |
| CC(C)(C)C(=O)NC1=NN(C(=O)C(C)(C)C)C(CS(C)(=O)=O)(c2ccccc2)S1 (stereo not given) |  | >10000 |  |  |
| COCC1(c2ccccc2)SC(NC(=O)C(C)(C)C)=NN1C(=O)C(C)(C)C (stereo not given) | 560 | 430 |  |  |
| CC(=O)NCC1(c2ccccc2)SC(NC(=O)C(C)(C)C)=NN1C(=O)C(C)(C)C (stereo not given) |  | 2200 |  |  |
| CC(C)(C)C(=O)NC1=NN(C(=O)C(C)(C)C)C(CNS(C)(=O)=O)(c2ccccc2)S1 (stereo not given) | 17 | 16 | 44 |  |
| CC(C)(C)C(=O)NC1=NN(C(=O)C(C)(C)C)C(CCNS(C)(=O)=O)(c2ccccc2)S1 (stereo not given) | 63 | 71 | 120 | CLint scaled [6]: 32.5 mL/min/kg |
| CCC(=O)NC1=NN(C(=O)CC)C(C)(c2ccccc2)S1 (stereo not given) |  | 1700 |  |  |
| CC(C)C(=O)NC1=NN(C(=O)C(C)C)C(C)(c2ccccc2)S1 (stereo not given) | 550 | 460 |  |  |
| CC(C)CC(=O)NC1=NN(C(=O)CC(C)C)C(C)(c2ccccc2)S1 (stereo not given) | 190 | 170 | 520 |  |
| CC1(c2ccccc2)SC(NC(=O)c2ccccc2)=NN1C(=O)c1ccccc1 (stereo not given) |  | >10000 |  |  |
| CCC(=O)N1N=C(NC(=O)C(C)(C)C)SC1(CCNS(C)(=O)=O)c1ccccc1 (racemic) |  | 114 | 111 | CLint scaled [6]: 14.8 mL/min/kg |
| CC(C)C(=O)N1N=C(NC(=O)C(C)(C)C)SC1(CCNS(C)(=O)=O)c1ccccc1 (racemic) |  | 114 | 110 | CLint scaled [6]: 14.8 mL/min/kg |
| CC(C)C(=O)N1N=C(NC(=O)C(C)(C)C)SC1(CCNS(C)(=O)=O)c1ccccc1 (single isomer, unassigned; (+)) |  | >10000 |  |  |
| CCC(=O)N1N=C(NC(=O)C(C)(C)C)SC1(CCNS(C)(=O)=O)c1ccccc1 (single isomer, unassigned; (-)) [listing 1 of 2 here] | 560 | 55 | 64 | Activity (Mus musculus [7]): Non-toxic; Activity (Mus musculus [8]): Non-toxic; T/C (A2780 [9]): 0.08; Activity (Mus musculus [10]): Non-toxic; Activity (Mus musculus [11]): Non-toxic; T/C (A2780 [12]): 0.5 |
| CC(C)C(=O)N1N=C(NC(=O)C(C)(C)C)SC1(CCNS(C)(=O)=O)c1ccccc1 (single isomer, unassigned; (-)) [listing 1 of 2 here] | 63 | 40 | 48 | Activity (Mus musculus [13]): Non-toxic; T/C (A2780 [14]): 0.5; Activity (Mus musculus [15]): Non-toxic; T/C (A2780 [16]): 0.27; selectivity ratio [17]: 8; Activity (Mus musculus [18]): Non-toxic; Activity (Mus musculus [19]): Non-toxic; Fa [20]: 62% |
| CC(C)C(=O)N1N=C(NC(=O)C(C)(C)C)SC1(CCNS(C)(=O)=O)c1ccccc1 (single isomer, unassigned; (-)) [listing 2 of 2 here] |  |  |  | TGI (A2780 [21]): Dose-dependent effect |
| CCC(=O)N1N=C(NC(=O)C(C)(C)C)SC1(CCNS(C)(=O)=O)c1ccccc1 (single isomer, unassigned; (-)) [listing 2 of 2 here] |  |  |  | TGI (A2780 [21]): Dose-dependent effect |
| CCC(=O)N1N=C(NC(=O)C(C)(C)C)SC1(CCNS(C)(=O)=O)c1ccccc1 (stereo in doubt; (+)-12a) |  | >10000 |  |  |
